Results reported in US9593305B2, “Differentiation of pluripotent stem cells” (Janssen Biotech, Inc., priority 2008, dated 2017).

Key:
[1] = tested on: H1 human embryonic stem cells; experiment: Step-wise differentiation, FACS for CXCR4 after step 1 (Example 16); format: cell-based; settings: 100 ng/ml GDF-8 with compound on first day, compared to activin A and Wnt3a
Description: (§1) The assay was initiated by aspirating the culture medium from each well and adding back an aliquot (0.5 ml) of test medium. Test conditions for the first step of differentiation were conducted over a three-day period, feeding daily by aspirating and replacing the medium from each well with fresh test medium. On the first day of assay, 100 ng/ml activin A (PeproTech; Cat #120-14) or 100 ng/ml GDF-8 (R&D Systems, Cat #788-G8) was added to respective assay wells where each growth factor was diluted into RPMI-1640 medium (Invitrogen; Cat #: 22400) with 2% Albumin Bovine Fraction V, Fatty Acid Free (FAF BSA) (Proliant Inc. Cat #: SKU 68700), and 20 ng/ml Wnt3a (R&D Systems; Cat #1324-WN/CF). On the second day of assay, 100 ng/ml activin A or 100 ng/ml GDF-8 was diluted into RPMI-1640 medium supplemented with 2% FAF BSA without Wnt3a. In some test samples using GDF-8, Wnt3a was replaced with a small molecule compound, added only on the first day of definitive endoderm differentiation. These small molecules included Compound 19 (2.5 μM in assay), Compound 202 (2.5 μM in assay), Compound 40 (2.5 μM in assay), or a commercially available GSK3 inhibitor BIO (0.5 μM in assay) (EMD Chemicals, Inc.; Cat #361550). At the conclusion of the first step of differentiation, cells from some wells were harvested for flow cytometry analysis to evaluate levels of CXCR4, a marker of definitive endoderm formation. Additional wells were harvested for RT-PCR analysis to measure other markers of differentiation.
Cells for FACS analysis were blocked in a 1:5 solution of 0.5% human gamma-globulin (Sigma; Cat#G-4386) in PBS (Invitrogen; Cat #14040-133): BD FACS staining buffer—BSA (BD; Cat #554657) for 15 minutes at 4° C. Cells were then stained with antibodies for CD9 PE (BD; Cat #555372), CD99 PE (Caltag; #MHCD9904) and CXCR4 APC(R&D Systems; Cat#FAB 173A) for 30 minutes at 4° C. After a series of washes in BD FACS staining buffer, the cells were stained for viability with 7-AAD (BD; Cat #559925) and run on a BD FACSArray. […]

[2] = tested on: H1 human embryonic stem cells; experiment: Step-wise differentiation, high content analysis of SOX17, cell number, insulin, glucagon (Example 16); format: cell-based; settings: GDF-8 with compound in step 1, relative to activin A and Wnt3a
Description: as §1
Step 5 of the differentiation protocol was carried out over seven days in DMEM-high glucose with 0.1% Albumax, 0.5× Insulin-Transferrin-Selenium, and 1 μM Alk 5 inhibitor. […]
Imaging was performed using an IN Cell Analyzer 1000 (GE Healthcare) utilizing the 51008bs dichroic for cells stained with Hoechst 33342 and Alexa Fluor 488. […] Segmentation for the nuclei was determined based on gray-scale levels (baseline range 100-300) and nuclear size. Averages and standard deviations were calculated for each replicate data set. […]

Compound: O=C1Nc2cc(Br)ccc2/C1=C1/Nc2ccccc2/C1=N\O [GSK3 inhibitor BIO, reference compound]
- percentage of CXCR4 positive cells after step 1 [1]: equivalent or slightly higher percentage of CXCR4 positive cells
- relative cell numbers recovered through differentiation step 5 [2]: decrease in cell number
